Experimental data published in patent US20230144855A1, “METHODS AND COMPOSITIONS FOR INDUCING FETAL HEMOGLOBIN” (Flagship Pioneering Innovations VI, LLC, priority 2021, published 2023).
“Also recorded” adds a separate entry of the source.

What was measured:
Type in all cases: cell-based, human
mPB CD34+ cells = experiment: scRNA-seq of CD34+ cells treated with HbF inducers (trajectories, gene signatures); conditions: for Pseudo-trajectory associated with high levels of HBG1/HBG2 expression: Leiden clustering / gene module analysis of HbF inducers
Description: To understand the mechanism/cell behavior driving fetal hemoglobin induction, a number of known HbF inducers were evaluated and their signature was elucidated by scRNA-seq. In brief, mPB CD34+ cells were thawed, cultured and treated with selected HbF inducers (Table 11) as described in Example 2 and subjected to single cell gene expression profiling (GEP) at 5 time points capturing the induction of erythroid differentiation from a hematopoietic stem cell progenitor. For sequencing, 10,000 cells (1000 cells/perturbation) were loaded into a single channel of a Chromium Next GEM Chip G and partitioned into droplets with gel beads using a Chromium controller per time point. After emulsion droplets were formed and collected, reverse transcription reactions were incubated at 53° C. for 45 min.
A dimensionality-reduced representation of the count matrix was embedded using UMAP, clustered using Leiden clustering and annotated using differential expression testing (Wilcoxon test) and comparisons to established marker genes. […] Based on these two trajectories, distinct signatures were generated for each transition and a list predictions were made towards each cell state.
Based on the unique/novel cell state (CD34+/CD41^Low+/CD235a+) induced by HU treatment of human hematopoietic stem cell progenitors Applicant postulated that this cell state was reminiscent/analogous to a stress erythropoiesis cell state previously defined in mice but not well characterized in human. […] To evaluate whether HU was inducing a stress erythropoiesis cells state and whether this cell state was responsive to glucocorticoids, the effect of dexamethasone (Dex) was evaluated in the context of HU treatment.
Perturbagen 1081 induced predicted gene signature associated with fetal hemoglobin induction. […] Adult human CD34+ progenitors were treated with Perturbagen 1081 and other known HbF inducers and subjected to scRNA-seq. […] Analysis of Perturbagen 1081 induced gene signature validated the fetal erythropoiesis signature predicted using a computational predictive models (FIG. 16C).

[1] = system: CD34+ hematopoietic stem and progenitor cells (HSPCs); experiment: Percentage HbF by HPLC / ion-exchange chromatography in in vitro derived erythrocytes; conditions: Day 14; HU 50 μM, Perturbagen 1081 0.1 μM; n=4-5
Description: (§1) Briefly, mobilized peripheral blood (mPB), or bone marrow (BM) derived CD34+ hematopoietic stem and progenitor cells (HSPCs) were thawed and cultured in Hematopoietic stem cell expansion media (Table 7) from Day −4 to Day 0 following by 3-stage in vitro erythroid differentiation (Table 8). Specifically, cells were cultured in erythroid expansion media (phase 1) from Day 0-6, followed by differentiation media (phase 2) between Day 7-10, and culminating with incubation in erythroid maturation media (phase 3) from Day 10-18. Perturbagens reconstituted in DMSO (or appropriate solvent) were added starting at day −2 (corresponding to a stage of CD34+ hematopoietic progenitors). […] As part of the analysis, the expansion (fold growth), viability, and erythroid maturation was measured throughout the course of differentiation. Early erythroid induction was determined by flow cytometry using a six-antibody panel (CD34, CD38, CD36, CD71, CD41, CD235a) (Table 9). Similarly, late erythroid maturation was determined by flow cytometry using a four-antibody panel (Table 10) (CD71, CD235a, CD233, CD49d) tracking increased CD233 expression, with a concomitant loss of CD49d expression, and a shift in CD71^Hi to CD71^low erythroid population (CD235a+) over 18 days (FIG. 2). […]

CD34+ HSPCs = experiment: Flow cytometry of the CD34+/CD41Low+/CD235a+ cell state; conditions: HU 50 uM, day 3 mPB CD34+
Description: Therefore, in this example, CD34+ HSPCs are cultured 4 days in stem cell maintenance media (days −4 through 0) then switched to the three phases of erythroid differentiation media. Phase 1, erythroid expansion media (days 0 through 6), Phase 2 erythroid differentiation media (days 7 through 10) and Phase 3 erythroid maturation media (days 10 through 18).

[2] = system: CD34+ hematopoietic stem and progenitor cells (HSPCs); experiment: Flow cytometry assay of percentage of HbF expressing cells (F-cells) after in vitro erythroid differentiation
Description: as §1

| SMILES | Pseudo-trajectory associated with high levels of HBG1/HBG2 expression (mPB CD34+ cells) | Expression of the glucocorticoid receptor (NR3C1) (mPB CD34+ cells; scRNA-seq of HU and HU+Dex conditions) | HbF induced, HPLC analysis of in vitro derived erythrocytes [1] | CD34+/CD41Low+/CD235a+ cell state (CD34+ HSPCs) | Number of F-cells with HU treatment ([2]; HU 50 uM on CD34+ HSPCs before erythroid differentiation) | F-cell data, glucocorticoid agonist combined with HU (absolute change, fold change) ([2]; combination with HU) |
| --- | --- | --- | --- | --- | --- | --- |
| NC(=O)NO [HU, hydroxyurea] | HU-HbF trajectory | increases the expression of the glucocorticoid receptor (NR3C1); also recorded: induction of NR3C1 | 17.16%+4.78 | a novel cell state defined by CD34+/CD41^Low+/CD235a+(FIG. 6A) was observed; also recorded: emergence of a cell population defined by CD34+CD41lowCD235a+ expression | increased number of F-cells | – |
| Cc1ccc2c(NC[C@](O)(CC(C)(C)c3cc(F)cc4c3OCC4)C(F)(F)F)cccc2n1 [Mapracorat] | – | – | – | – | – | synergy with HU |
| Nc1cccc2c1C(=O)N(C1CCC(=O)NC1=O)C2=O (stereo not shown) [Pomalidomine] | canonical-HbF trajectory | – | – | – | – | – |
